The target in assay [1] is T1, recombinant BACE1 protein (Homo sapiens, UniProt P56817).
T1 construct: recombinant BACE1 protein in a final concentration of 1 μg/ml
Kind of assay: BACE1 biochemical FRET based assay - Method 2. To be noted: BACE1 0.04 μg/ml, 450 minutes, 20 μM substrate, pH 5.0; for IC50: read-out: Biochemical FRET based assay- Method 2 pIC50 (converted). The text has this:
(§1) BACE1 Biochemical FRET Based Assay
(§2) This assay is a Fluorescence Resonance Energy Transfer Assay (FRET) based assay. The substrate for this assay is an APP derived 13 amino acids peptide that contains the ‘Swedish’ Lys-Met/Asn-Leu mutation of the amyloid precursor protein (APP) beta-secretase cleavage site. This substrate also contains two fluorophores: (7-methoxycoumarin-4-yl) acetic acid (Mca) is a fluorescent donor with excitation wavelength at 320 nm and emission at 405 nm and 2,4-Dinitrophenyl (Dnp) is a proprietary quencher acceptor. […] Upon cleavage by BACE1, the fluorophore Mca is separated from the quenching group Dnp, restoring the full fluorescence yield of the donor. The increase in fluorescence is linearly related to the rate of proteolysis.
Briefly in a 384-well format recombinant BACE1 protein in a final concentration of 0.04 μg/ml is incubated for 450 minutes at room temperature with 20 μM substrate in incubation buffer (50 mM Citrate buffer pH 5.0, 0.05% PEG) in the presence of compound or DMSO. Next the amount of proteolysis is directly measured by fluorescence measurement (excitation at 320 nm and emission at 405 nm) at different incubation times (0, 30, 60, 90, 120 and 450 min). For every experiment a time curve (every 30 min between 0 min and 120 min) is used to determine the time where we find the lowest basal signal of the high control. The signal at this time (Tx) is used to subtract from the signal at 450 min. Results are expressed in RFU, as difference between T450 and Tx.
(§3) A best-fit curve is fitted by a minimum sum of squares method to the plot of % Controlmin versus compound concentration. From this an IC50 value (inhibitory concentration causing 50% inhibition of activity) can be obtained.

The subject of assay [2] is Abeta 1-42 produced and secreted by SKNBE2 cells expressing hAPP695. Kind of assay: Cellular αLisa assay in SKNBE2 cells - Abeta 42. It is filed as cell-based, human. The conditions noted are these: incubated for 18 hours; for IC50: Homo sapiens, read-out: Cellular αLisa assay in SKNBE2 cells Abeta 42 pIC50 (converted). How it is done: (§4) Cellular αLisa Assay in SKNBE2 Cells
(§5) In two αLisa assays the levels of Abeta total and Abeta 1-42 produced and secreted into the medium of human neuroblastoma SKNBE2 cells are quantified. The assay is based on the human neuroblastoma SKNBE2 expressing the wild type Amyloid Precursor Protein (hAPP695). The compounds are diluted and added to these cells, incubated for 18 hours and then measurements of Abeta 1-42 and Abeta total are taken. Abeta total and Abeta 1-42 are measured by sandwich αLisa. αLisa is a sandwich assay using biotinylated antibody AbN/25 attached to streptavidin coated beads and antibody Ab4G8 or cAb42/26 conjugated acceptor beads for the detection of Abeta total and Abeta 1-42 respectively. In the presence of Abeta total or Abeta 1-42, the beads come into close proximity. The excitation of the donor beads provokes the release of singlet oxygen molecules that trigger a cascade of energy transfer in the acceptor beads, resulting in light emission. Light emission is measured after 1 hour incubation (excitation at […] and emission at 615 nm).
as §3

In assay [3] the test system is Abeta total produced and secreted by SKNBE2 cells expressing hAPP695. Kind of assay: Cellular αLisa assay in SKNBE2 cells - Abeta total. Format: cell-based. The conditions noted are these: Homo sapiens, incubated for 18 hours, read-out: Cellular αLisa assay in SKNBE2 cells Abeta total pIC50 (converted). How it is done:
as §4, §5, §3

For assay [4], the target named is T2, recombinant BACE2 protein (Homo sapiens, UniProt Q9Y5Z0).
T2 construct: recombinant BACE2 protein in a final concentration of 0.4 μg/nil
T2 sequence (Q9Y5Z0 63-518): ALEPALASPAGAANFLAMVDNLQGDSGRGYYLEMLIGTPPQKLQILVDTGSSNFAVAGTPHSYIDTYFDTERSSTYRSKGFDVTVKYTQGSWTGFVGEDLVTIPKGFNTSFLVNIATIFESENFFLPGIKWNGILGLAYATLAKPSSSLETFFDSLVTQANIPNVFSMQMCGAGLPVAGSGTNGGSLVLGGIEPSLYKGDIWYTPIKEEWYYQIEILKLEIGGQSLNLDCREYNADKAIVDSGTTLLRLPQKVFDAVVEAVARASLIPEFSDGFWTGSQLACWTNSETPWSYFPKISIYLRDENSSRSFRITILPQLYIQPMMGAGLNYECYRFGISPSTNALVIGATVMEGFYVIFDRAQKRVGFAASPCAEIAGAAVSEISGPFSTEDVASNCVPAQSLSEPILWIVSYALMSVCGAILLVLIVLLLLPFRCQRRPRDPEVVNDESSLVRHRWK
Kind of assay: BACE2 biochemical FRET based assay. The conditions noted are these: BACE2 0.4 μg/nil, 450 minutes, 10 μM substrate, pH 5.0; for IC50: read-out: Biochemical FRET based assay pIC50 (BACE2) (converted).
Description: BACE2 Biochemical FRET Based Assay
as §2, with “assay” for “assay is an APP derived 13 amino acids peptide that”, “the beta-secretase,” for “BACE1,”
Briefly in a 384-well format recombinant BACE2 protein in a final concentration of […] is incubated for 450 minutes at room temperature with 10 μM substrate in incubation buffer (50 mM Citrate buffer pH 5.0, 0.05% PEG, no DMSO) in the absence or presence of compound. Next the amount of proteolysis is directly measured by fluorescence measurement at T=0 and T=450 (excitation at 320 nm and emission at 405 nm). Results are expressed in RFU (Relative Fluorescence Units), as difference between T450 and T0.
as §3

Assay [5] concerns the target T1, recombinant BACE1 protein. The assay is described as follows: BACE1 biochemical FRET based assay - Method 1. To be noted: BACE1 1 μg/ml, 120 minutes, 10 μm substrate, pH 5.0; read-out: Biochemical FRET based assay - Method 1 pIC50 (converted).
Description: as §1, §2
Briefly in a 384-well format recombinant BACE1 protein in a final concentration of 1 μg/ml is incubated for 120 minutes at room temperature with 10 μm substrate in incubation buffer (40 mM Citrate buffer pH 5.0, 0.04% PEG, 4% DMSO) in the absence or presence of compound. Next the amount of proteolysis is directly measured by fluorescence measurement at T=0 and T=120 (excitation at 320 nm and emission at 405 nm). Results are expressed in RFU (Relative Fluorescence Units), as difference between T120 and T0.
as §3

T1 sequence (P56817 46-501): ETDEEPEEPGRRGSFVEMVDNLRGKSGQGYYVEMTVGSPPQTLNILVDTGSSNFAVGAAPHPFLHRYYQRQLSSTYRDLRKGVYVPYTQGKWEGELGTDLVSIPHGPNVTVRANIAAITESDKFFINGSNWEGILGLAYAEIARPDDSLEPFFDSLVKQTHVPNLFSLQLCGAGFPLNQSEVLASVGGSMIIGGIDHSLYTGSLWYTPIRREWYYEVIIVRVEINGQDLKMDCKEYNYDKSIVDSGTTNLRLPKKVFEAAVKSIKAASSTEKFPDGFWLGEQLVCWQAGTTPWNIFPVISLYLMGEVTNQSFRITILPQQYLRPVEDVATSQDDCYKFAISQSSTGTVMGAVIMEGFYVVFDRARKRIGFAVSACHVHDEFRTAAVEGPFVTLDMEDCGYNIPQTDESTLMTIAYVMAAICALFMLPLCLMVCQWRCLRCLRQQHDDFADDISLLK

`COc1cnc(C(=O)Nc2ccc(F)c(C3(C)N=C(N)CC3C(F)(F)F)c2)cn1` (racemic) [Compound 17, (±)-N-[3-[(2S*,3R*)-5-amino-2-methyl-3-(trifluoromethyl)-3,4-dihydropyrrol-2-yl]-4-fluoro-phenyl]-5-methoxy-pyrazine-2-carboxamide]: the IC50 in assay [1] is 0.871 µM; in assay [2], 0.17 µM; in assay [3] it was 0.178 µM; in assay [4] it was greater than 10 µM.

In the case of `CC1(c2cc(NC(=O)c3ccc(C#N)cn3)ccc2F)N=C(N)CC1C(F)(F)F` (racemic) [Compound 18, (+)-N-[3-[(2S*,3R*)-5-amino-2-methyl-3-(trifluoromethyl)-3,4-dihydropyrrol-2-yl]-4-fluoro-phenyl]-5-cyano-pyridine-2-carboxamide], the IC50 was 0.38 µM in assay [1], 0.0676 µM in assay [2], 0.0646 µM in assay [3] and 2.19 µM in assay [4].

Regarding `C[C@@]1(c2cccc(-c3cncnc3)c2)C[C@@H](C(F)(F)F)CC(N)=N1` [Compound 1, (4R,6S)-6-methyl-6-(3-pyrimidin-5-ylphenyl)-4-(trifluoromethyl)-3,4,5,6-tetrahydropyridin-2-amine], the IC50 in assay [5] was 1.48 µM; in assay [1], 1.02 µM; in assay [2] it was 0.295 µM; in assay [3] it was 0.263 µM.

Turning to `C[C@@]1(c2cccc(-c3cncnc3)c2)C[C@H](C(F)(F)F)CC(N)=N1` [Compound 2, (4S,6S)-6-methyl-6-(3-pyrimidin-5-ylphenyl)-4-(trifluoromethyl)-3,4,5,6-tetrahydropyridin-2-amine], the IC50 is 18.2 µM in assay [5]; greater than 10 µM in assay [1]; 4.27 µM in assay [2]; 3.98 µM in assay [3]; greater than 10 µM in assay [4].

For the compound `C[C@@]1(c2cccc(NC(=O)c3ncc(Cl)cc3F)c2)C[C@@H](C(F)(F)F)CC(N)=N1` [Compound 5, N-[3-[(2S,4R)-6-amino-2-methyl-4-(trifluoromethyl)-4,5-dihydro-3H-pyridin-2-yl]phenyl]-5-chloro-3-fluoro-pyridine-2-carboxamide], the IC50 in assay [5] was 0.0263 µM; in assay [1], 0.0182 µM; in assay [2] it was 0.024 µM; in assay [3] it was 0.0209 µM; in assay [4], 0.0209 µM.

On to `C[C@@]1(c2cccc(NC(=O)c3ncc(Cl)cc3F)c2)C[C@H](C(F)(F)F)CC(N)=N1` [Compound 6, N-[3-[(2S,4S)-6-amino-2-methyl-4-(trifluoromethyl)-4,5-dihydro-3H-pyridin-2-yl]phenyl]-5-chloro-3-fluoro-pyridine-2-carboxamide], for which the IC50 in assay [5] was 4.9 µM; in assay [1], 1.62 µM; in assay [2] it was 2 µM; in assay [3], 1.86 µM; in assay [4], 1.15 µM.

`C[C@@]1(c2cccc(NC(=O)c3ccc(C#N)cn3)c2)C[C@@H](C(F)(F)F)CC(N)=N1` [Compound 7, N-[3-[(2S,4R)-6-amino-2-methyl-4-(trifluoromethyl)-4,5-dihydro-3H-pyridin-2-yl]phenyl]-5-cyano-pyridine-2-carboxamide]: the IC50 in assay [5] was 0.0324 µM; in assay [1] it was 0.0204 µM; in assay [2], 0.024 µM; in assay [3], 0.024 µM; in assay [4] it was 0.132 µM.

Regarding `CC1(c2cc(-c3cncnc3)ccc2F)N=C(N)CC1C(F)(F)F` (centres unmarked) [Compound 14], the IC50 in assay [1] was greater than 10 µM; in assay [2], 8.91 µM; in assay [3] it was 8.32 µM; in assay [4] it was greater than 10 µM.

For the compound `C[C@]1(c2cc(NC(=O)c3ccc(Cl)cn3)ccc2F)N=C(N)C[C@H]1C(F)(F)F` [Compound 19, N-[3-[(2S,3R)-5-amino-2-methyl-3-(trifluoromethyl)-3,4-dihydropyrrol-2-yl]-4-fluoro-phenyl]-5-chloro-pyridine-2-carboxamide], the IC50 is 0.302 µM in assay [1], 0.0617 µM in assay [2], 0.0813 µM in assay [3] and 0.692 µM in assay [4].

For the compound `C[C@@]1(c2cc(NC(=O)c3ccc(Cl)cn3)ccc2F)N=C(N)C[C@@H]1C(F)(F)F` [Compound 20, N-[3-[(2R,3S)-5-amino-2-methyl-3-(trifluoromethyl)-3,4-dihydropyrrol-2-yl]-4-fluoro-phenyl]-5-chloro-pyridine-2-carboxamide], the IC50 in assay [1] was greater than 10 µM; in assay [2], 8.91 µM; in assay [3], 8.32 µM; in assay [4], greater than 10 µM.

For `C[C@@]1(c2cc(NC(=O)c3ccc(Br)cn3)ccc2F)N=C(N)C[C@@H]1C(F)(F)F` [Compound 33, N-[3-[(2R,3S)-5-amino-2-methyl-3-(trifluoromethyl)-3,4-dihydropyrrol-2-yl]-4-fluoro-phenyl]-5-bromo-pyridine-2-carboxamide], the IC50 in assay [1] was 0.229 µM; in assay [2], 0.0363 µM; in assay [4], 0.513 µM.

As for “(±)-N-[3-[(2S*,3R*)-5-amino-2-methyl-3-(trifluoromethyl)-3,4-dihydropyrrol-2-yl]-4-fluoro-phenyl]-5-(2,2,2-trifluoroethoxy)pyrazine-2-carboxamide [Compound 24]”, the “Biochemical FRET based assay- Method 2 pIC50” value in assay [1] is recorded as 6.10. Besides, the “Cellular αLisa assay in SKNBE2 cells Abeta 42 pIC50” value in assay [2] is on record as 6.38. For the same compound, the “Biochemical FRET based assay pIC50 (BACE2)” value in assay [4] was less than 5.

Values taken from patent US10106524B2, “2,3,4,5-tetrahydropyridin-6-amine and 3,4-dihydro-2H-pyrrol-5-amine compound inhibitors of beta-secretase” (Janssen Pharmaceutica NV, priority 2015, dated 2018).
